Holding throughout (assay): drug sensitivity score (DSS3, normalised partial AUC of % inhibition dose-response) (DSS (score)); higher = more sensitive (stronger inhibition of viability); extreme values may be limits of the assay
In one assay the test system is FMOC24 (patient-derived high-grade serous ovarian cancer cells). Particulars: 72 h; library: FO5A; assay format: 2D, 384-well, CellTiter-Glo. An outline of the steps: (§1)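 Early-passage (under 10) patient-derived ovarian cancer cells were dispensed onto 384-well flat clear-bottom plates pre-plated with compounds at five concentrations spanning a 10,000-fold range, then incubated 72 h at 37 °C, 5% CO2. Viability was read with CellTiter-Glo, and the data were processed in Breeze. The drug sensitivity score is a partial area under the percent-inhibition dose-response curve divided by the log of the upper asymptote, with higher values meaning greater sensitivity.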
A general note: In ATP-based viability assays light output follows the ATP content of the culture.

The next assay deals with FMOC22 (patient-derived mucinous ovarian cancer cells). The settings on record: 72 h; library: FO5A; assay format: 2D, 384-well, CellTiter-Glo. An outline of the steps: as §1
The subject of the next assay is FMOC14 (patient-derived high-grade serous ovarian cancer cells). The settings on record: 72 h; library: FO5A; assay format: 2D, 384-well, CellTiter-Glo. An outline of the steps:
as §1

The test system of a further assay is FMOC06 (patient-derived mucinous ovarian cancer cells). The settings on record: 72 h; library: FO5A; assay format: 2D, 384-well, CellTiter-Glo. An outline of the steps:
as §1

A further assay concerns FMOC02_2 (patient-derived low-grade serous ovarian cancer cells). Particulars: 72 h; library: FO5A; assay format: 2D, 384-well, CellTiter-Glo. An outline of the steps:
as §1

Another assay concerns FMOC03 (patient-derived mucinous ovarian cancer cells). The settings on record: 72 h; library: FO5A; assay format: 2D, 384-well, CellTiter-Glo. The gist of the method:
as §1

For another assay, the system named is FMOC02_3 (patient-derived low-grade serous ovarian cancer cells). The settings on record: 72 h; library: FO5A; assay format: 2D, 384-well, CellTiter-Glo. The gist of the method:
as §1

Another assay deals with FMOC25_1 (patient-derived low-grade serous ovarian cancer cells). Particulars: 72 h; library: FO4B; assay format: 2D, 384-well, CellTiter-Glo. An outline of the steps: as §1
A further assay has as its system FMOC09 (patient-derived high-grade serous ovarian cancer cells). The settings on record: 72 h; library: FO5A; assay format: 2D, 384-well, CellTiter-Glo. An outline of the steps: as §1
The test system of another assay is FMOC25_2 (patient-derived low-grade serous ovarian cancer cells). The settings on record: 72 h; library: FO5A; assay format: 2D, 384-well, CellTiter-Glo. The gist of the method: as §1

Take `O=C(NOC[C@H](O)CO)c1ccc(F)c(F)c1Nc1ccc(I)cc1F`: the drug sensitivity score in the assay with FMOC24 stood at 0.2; in the assay on FMOC22 it was 7.5; in the assay on FMOC14 it was 0.2; with FMOC06, 11.3; in the assay on FMOC02_2, 10.4; in the assay on FMOC03 it was 11.5. In addition, the drug sensitivity score worked out at 7 with FMOC02_3, 7 in the assay with FMOC25_1, 8 in the assay with FMOC09 and 5.2 with FMOC25_2.

`O=C(Nc1ccc2[nH]nc(-c3ccncc3)c2c1)[C@@H]1CCN(CC(=O)N2CCN(c3ccc(-c4ncccn4)cc3)CC2)C1`: the drug sensitivity score is 3.15 with FMOC24; 11.8 in the assay on FMOC22; 1.1 in the assay with FMOC14; 14.9 in the assay on FMOC06; 14.3 in the assay on FMOC02_2; 18.4 in the assay with FMOC03. Besides, the drug sensitivity score with FMOC02_3 came out at 16.8; in the assay with FMOC25_1 it was 16.6; with FMOC09 it was 9.6; in the assay with FMOC25_2, 18.

For `COc1ccc(C[C@H](NC(=O)[C@H](C)NC(=O)CN2CCOCC2)C(=O)N[C@@H](Cc2ccccc2)C(=O)C2(C)CO2)cc1` (stereo in doubt) [ONX-0914], the drug sensitivity score in the assay on FMOC24 was 20.9; in the assay with FMOC22 it was 14.9; in the assay on FMOC14, 14.1; with FMOC06, 16.9; in the assay with FMOC02_2 it was 12.5; with FMOC03, 16.5. Further, the drug sensitivity score in the assay with FMOC02_3 was 19.3; in the assay on FMOC25_1, 16.4; in the assay on FMOC09, 12.8; with FMOC25_2 it was 18.8.

As for `CC/C(=C(\c1ccc(O)cc1)c1ccc(OCCN(C)C)cc1)c1ccccc1` [4-hydroxytamoxifen], the drug sensitivity score with FMOC24 came out at 7.3; in the assay with FMOC22, 5.7; in the assay on FMOC14, 6.1; in the assay on FMOC06, 7.3; with FMOC02_2, 6.8; in the assay with FMOC03, 6.1. The drug sensitivity score was determined as 6.4 in the assay with FMOC02_3, 2 in the assay on FMOC25_1, 5.1 with FMOC09 and 3.2 with FMOC25_2.

Consider `Nc1ncnc2c1nc(N)n2[C@@H]1O[C@H](CO)[C@@H](O)[C@H]1O` [8-amino-adenosine], for which the drug sensitivity score with FMOC24 came to 18.8; in the assay on FMOC22, 18.6; in the assay with FMOC14, 16; with FMOC06, 20.3; in the assay on FMOC02_2, 27.5; in the assay with FMOC03, 18.3. In addition, the drug sensitivity score in the assay on FMOC02_3 was determined as 21.7; in the assay on FMOC25_1, 20.5; in the assay with FMOC09, 20.2; with FMOC25_2, 18.6.

For the molecule `Nc1ncnc2c1nc(Cl)n2[C@@H]1O[C@H](CO)[C@@H](O)[C@H]1O` [8-chloro-adenosine], the drug sensitivity score was determined as 6 in the assay on FMOC24; 3.2 in the assay on FMOC22; 3.3 in the assay with FMOC14; 4.1 in the assay on FMOC06; 19.7 with FMOC02_2; 2.4 with FMOC03. The drug sensitivity score in the assay with FMOC02_3 worked out at 18.2; in the assay on FMOC25_1, 11.4; in the assay with FMOC09 it was 5.5; with FMOC25_2 it was 15.2.

`COc1ccc(S(=O)(=O)Nc2cccnc2Nc2ccc(O)cc2)cc1` [ABT-751]: the drug sensitivity score in the assay on FMOC24 was determined as 1.8; with FMOC22 it was 6.8; in the assay with FMOC14 it was 1.3; with FMOC06, 7; with FMOC02_2, 9.4; in the assay on FMOC03 it was 7.4. The drug sensitivity score with FMOC02_3 amounted to 9.5; with FMOC25_1 it was 5; with FMOC09 it was 7.3; in the assay with FMOC25_2, 6.8.

Turning to `CC(C)[C@@H](CS(=O)(=O)C(C)C)N1C(=O)[C@@](C)(CC(=O)O)C[C@H](c2cccc(Cl)c2)[C@H]1c1ccc(Cl)cc1` [AMG-232], the drug sensitivity score came to 0 in the assay with FMOC24; 0.8 in the assay on FMOC22; 0 with FMOC14; 0 in the assay with FMOC06; 14.9 with FMOC02_2; 0 with FMOC03. The drug sensitivity score in the assay with FMOC02_3 is 26; in the assay with FMOC25_1, 5.6; in the assay on FMOC09 it was 0; in the assay on FMOC25_2, 13.1.

Regarding `CC(C)[C@H](C(=O)Nc1ccc(C(=O)NO)cc1)c1ccccc1` [AR-42], the drug sensitivity score in the assay with FMOC24 was found to be 9.3; with FMOC22, 8.7; in the assay on FMOC14, 11.5; in the assay with FMOC06, 10.6; in the assay with FMOC02_2, 11; with FMOC03, 12.4. The drug sensitivity score with FMOC02_3 turned out to be 8.8; in the assay with FMOC25_1, 10.1; in the assay with FMOC09 it was 5.2; with FMOC25_2, 10.7.

For the molecule `COc1cc(N2CCC(N3CCN(C)CC3)CC2)ccc1Nc1ncnc(Nc2ccccc2S(=O)(=O)C(C)C)n1` [ASP3026], the drug sensitivity score in the assay with FMOC24 amounted to 5.1; in the assay with FMOC22, 4; with FMOC14, 0.8; in the assay with FMOC06, 4.9; in the assay on FMOC02_2, 9.8; with FMOC03 it was 4. Besides, the drug sensitivity score in the assay on FMOC02_3 was 8.1; with FMOC25_1, 5.2; in the assay on FMOC09 it was 7.2; with FMOC25_2, 8.6.

Turning to `O=C(NC1CCNCC1)c1n[nH]cc1NC(=O)c1c(Cl)cccc1Cl` [AT7519], the drug sensitivity score in the assay with FMOC24 came out at 15.2; in the assay on FMOC22, 10; in the assay on FMOC14 it was 12.5; in the assay on FMOC06, 16.3; in the assay with FMOC02_2, 17.8; with FMOC03, 12.1. In addition, the drug sensitivity score stood at 22.1 with FMOC02_3, 17.6 with FMOC25_1, 12.3 with FMOC09 and 21.3 with FMOC25_2.

With `Cn1c(=O)c(F)c(Nc2ccc(I)cc2F)c2c(=O)n(C[C@@H](O)CO)cnc21` [TAK-733], in the assay with FMOC25_1, the drug sensitivity score came to 13.2.

The molecule `COc1cc(C(=O)NC2CCN(C)CC2)c(F)cc1Nc1ncc2c(n1)N(C1CCCC1)CC(F)(F)C(=O)N2C` [TAK-960] gave a drug sensitivity score in the assay with FMOC25_1 of 0.

As to `NC(=O)Nc1sc(-c2ccc(F)cc2)cc1C(N)=O` [TPCA-1], the drug sensitivity score in the assay on FMOC25_1 was determined as 2.9.

Consider `C=CCNC1=C2C[C@@H](C)C[C@H](OC)[C@H](O)[C@@H](C)/C=C(\C)[C@H](OC(N)=O)[C@@H](OC)/C=C\C=C(/C)C(=O)NC(=CC1=O)C2=O` [Tanespimycin], for which the drug sensitivity score in the assay on FMOC25_1 was 14.6.

On to `S=P(N1CC1)(N1CC1)N1CC1` [Thio-TEPA], for which the drug sensitivity score with FMOC25_1 was determined as 0.7.

In the assay on FMOC25_1, `O=C(O)CSc1cc(NS(=O)(=O)c2ccc(Br)cc2)c2ccccc2c1O` [UMI-77] gave a drug sensitivity score of 14.3.

In the assay on FMOC25_1, `Oc1ncc(N(CCCl)CCCl)c(O)n1` [Uramustine] yielded a drug sensitivity score of 0.1.

As to `O=c1ncn2nc(Sc3ccc(F)cc3F)ccc2c1-c1c(Cl)cccc1Cl` [VX 745], in the assay with FMOC25_1, the drug sensitivity score worked out at 0.

Take `CCn1c(=O)c(-c2cc[nH]n2)cc2c(C)nc(N)nc21` [Voxtalisib]: the drug sensitivity score in the assay on FMOC25_1 came to 10.6.

On to `O=C(Nc1ccc(-c2ccnc(Nc3ccc(N4CCOCC4)cc3)n2)cc1)C1CCCN1` (stereo not drawn) [XL019], for which the drug sensitivity score in the assay on FMOC25_1 came out at 0.5.

In the case of `COc1cc2c(Nc3ccc(Cl)c(Cl)c3F)ncnc2cc1OC[C@@H]1C[C@@H]2CN(C)C[C@@H]2C1` [XL-647], in the assay with FMOC25_1, the drug sensitivity score was found to be 9.1.

Molecule `COCC[n+]1c2c(n(Cc3cnccn3)c1C)C(=O)c1ccccc1C2=O` [YM155] yielded a drug sensitivity score in the assay with FMOC25_1 of 35.5.

With `c1ccc(Cn2c(-c3ccc(OC[C@H](C4CCNCC4)n4c(-c5ccccc5)nc5ccccc54)cc3)nc3ccccc32)cc1` [deltarasin], in the assay with FMOC25_1, the drug sensitivity score came out at 5.5.
